Values joined by “and” are separate entries in the source; they are usually repeats but may differ in a detail not shown here. Equal entries are not always repeated. Inconclusive results and toxic doses are left out.
Tested on: CD2F1 mice, L1210 leukemia ip, survival T/C
Assay: NCI In Vivo Anticancer Drug Screen. Data for tumor model L1210 Leukemia (intraperitoneal) in CD2F1 (CDF1) mice
Conditions: higher = longer survival
Summary of the method: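 Transplantable tumor in mice; compound-treated vs vehicle-treated groups. Read-out = treated/control ratio of the measured endpoint.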

[1] = endpoint: mean survival time, dose: 12.5 mg/kg/injection, schedule: Q01DX009 (ip), vehicle: saline with Tween-80
[2] = endpoint: mean survival time, dose: 25.0 mg/kg/injection, schedule: Q01DX009 (ip), vehicle: saline with Tween-80
[3] = endpoint: mean survival time, dose: 50.0 mg/kg/injection, schedule: Q01DX009 (ip), vehicle: saline with Tween-80
[4] = endpoint: mean survival time, dose: 100.0 mg/kg/injection, schedule: Q01DX009 (ip), vehicle: saline with Tween-80
[5] = endpoint: mean survival time, dose: 400.0 mg/kg/injection, schedule: Q01DX009 (ip), vehicle: saline with Tween-80
[6] = endpoint: mean survival time, dose: 100.0 mg/kg/injection, schedule: Q04DX003 (ip), vehicle: saline with Tween-80
[7] = endpoint: mean survival time, dose: 200.0 mg/kg/injection, schedule: Q01DX009 (ip), vehicle: saline with Tween-80
[8] = endpoint: mean survival time, dose: 200.0 mg/kg/injection, schedule: Q04DX003 (ip), vehicle: saline with Tween-80
[9] = endpoint: mean survival time, dose: 6.25 mg/kg/injection, schedule: Q04DX003 (ip), vehicle: saline with Tween-80
[10] = endpoint: mean survival time, dose: 12.5 mg/kg/injection, schedule: Q04DX003 (ip), vehicle: saline with Tween-80
[11] = endpoint: mean survival time, dose: 25.0 mg/kg/injection, schedule: Q04DX003 (ip), vehicle: saline with Tween-80
[12] = endpoint: mean survival time, dose: 50.0 mg/kg/injection, schedule: Q04DX002 (ip), vehicle: saline
[13] = endpoint: mean survival time, dose: 100.0 mg/kg/injection, schedule: Q04DX002 (ip), vehicle: saline
[14] = endpoint: mean survival time, dose: 200.0 mg/kg/injection, schedule: Q04DX002 (ip), vehicle: saline
[15] = endpoint: mean survival time, dose: 100.0 mg/kg/injection, schedule: Q01DX001 (ip), vehicle: saline with Tween-80
[16] = endpoint: mean survival time, dose: 200.0 mg/kg/injection, schedule: Q01DX001 (ip), vehicle: saline with Tween-80

## COc1cc(C2c3cc4c(cc3C(O)C(CO)C2CO)OCO4)cc(OC)c1OC (stereo not given)
[1]
  T/C: 97 % of control
[2]
  T/C: 97 % of control
[3]
  T/C: 102 % of control
[4]
  T/C: 106 % of control
endpoint: mean survival time, dose: 100.0 mg/kg/injection, schedule: Q04DX003 (ip), vehicle: saline sonified
  T/C: 107 % of control
endpoint: mean survival time, dose: 150.0 mg/kg/injection, schedule: Q04DX003 (ip), vehicle: saline sonified
  T/C: 114 % of control
endpoint: mean survival time, dose: 225.0 mg/kg/injection, schedule: Q04DX003 (ip), vehicle: saline sonified
  T/C: 108 % of control
[5]
  T/C: 122 % of control

## CC1CNC(=S)S1 (stereo not given)
[4]
  T/C: 94 % of control
[6]
  T/C: 97 % of control
[7]
  T/C: 109 % of control
[8]
  T/C: 94 % of control
[5]
  T/C: 105 % of control
endpoint: mean survival time, dose: 400.0 mg/kg/injection, schedule: Q04DX003 (ip), vehicle: saline with Tween-80
  T/C: 101 % of control

## COc1cccc2c1C(=O)c1c(O)c3c(c(O)c1C2=O)C[C@@](O)(/C(C)=N\O)C[C@@H]3OC1CC(N)C(O)C(C)O1 (stereo not given in full)
endpoint: mean survival time, dose: 3.13 mg/kg/injection, schedule: Q01DX009 (ip), vehicle: water
  T/C: 108 % of control
endpoint: mean survival time, dose: 6.25 mg/kg/injection, schedule: Q01DX009 (ip), vehicle: water
  T/C: 112 % of control
endpoint: mean survival time, dose: 25.0 mg/kg/injection, schedule: Q01DX009 (ip), vehicle: water
  T/C: 98 % of control

## NNC(=O)c1ccccc1Cl
endpoint: mean survival time, dose: 9.5 mg/kg/injection, schedule: Q01DX001 (ip), vehicle: other
  T/C: 97 % of control
endpoint: mean survival time, dose: 19.0 mg/kg/injection, schedule: Q01DX001 (ip), vehicle: other
  T/C: 95 % of control
endpoint: mean survival time, dose: 38.0 mg/kg/injection, schedule: Q01DX001 (ip), vehicle: other
  T/C: 97 % of control

## O=C(CNC(=O)Nc1cccc(C(F)(F)F)c1)N/N=C/c1ccccc1O
[1]
  T/C: 95 % of control
[2]
  T/C: 87 % of control
[3]
  T/C: 88 % of control
[4]
  T/C: 100 % of control
[7]
  T/C: 103 % of control

## CCOC(=O)C[P+](c1ccccc1)(c1ccccc1)c1ccccc1
endpoint: mean survival time, dose: 3.13 mg/kg/injection, schedule: Q01DX009 (ip), vehicle: saline sonified
  T/C: 93 % of control
endpoint: mean survival time, dose: 3.13 mg/kg/injection, schedule: Q04DX003 (ip), vehicle: saline with Tween-80
  T/C: 98 % of control
endpoint: mean survival time, dose: 6.25 mg/kg/injection, schedule: Q01DX009 (ip), vehicle: saline sonified
  T/C: 94 % of control
[9]
  T/C: 98 % of control
endpoint: mean survival time, dose: 12.5 mg/kg/injection, schedule: Q01DX009 (ip), vehicle: saline sonified
  T/C: 93 % of control
[10]
  T/C: 98 % of control
endpoint: mean survival time, dose: 25.0 mg/kg/injection, schedule: Q01DX009 (ip), vehicle: saline sonified
  T/C: 93 % of control
[11]
  T/C: 95 % of control

## CCCCCCCCCCCCCCCC(=O)Nc1ccn(C2OC(CO)C(O)C2O)c(=O)n1 (stereo not given)
endpoint: mean survival time, dose: 12.5 mg/kg/injection, schedule: Q01DX009 (ip), vehicle: saline
  T/C: 213 % of control and 268 % of control
endpoint: mean survival time, dose: 25.0 mg/kg/injection, schedule: Q01DX009 (ip), vehicle: saline
  T/C: 189 % of control and 270 % of control
endpoint: mean survival time, dose: 50.0 mg/kg/injection, schedule: Q01DX009 (ip), vehicle: saline
  T/C: 225 % of control and 307 % of control
[12]
  T/C: 331 % of control
[13]
  T/C: 344 % of control and 345 % of control
endpoint: mean survival time, dose: 200.0 mg/kg/injection, schedule: Q01DX009 (ip), vehicle: saline
  T/C: 95 % of control
[14]
  T/C: 198 % of control

## O=S(=O)(Nc1ccc(NS(=O)(=O)c2ccccc2)c(N2CCOCC2)c1)c1ccccc1
[15]
  T/C: 101 % of control
[16]
  T/C: 101 % of control
endpoint: mean survival time, dose: 400.0 mg/kg/injection, schedule: Q01DX001 (ip), vehicle: saline with Tween-80
  T/C: 92 % of control

## CC1=Nc2cc(Cl)c(Cl)cc2N(C)/C1=C/C1=C(Cl)C(=O)c2cc3c(Cl)ccc(Cl)c3cc2C1=O
[6]
  T/C: 94 % of control
[8]
  T/C: 97 % of control

## CC/C(=C(\c1ccccc1)c1ccc(OCCN(C)C)cc1)c1ccccc1
endpoint: median survival time, dose: 3.12 mg/kg/injection, schedule: Q01DX009 (ip), vehicle: suspension in saline
  T/C: 101 % of control
endpoint: median survival time, dose: 6.25 mg/kg/injection, schedule: Q01DX009 (ip), vehicle: suspension in saline
  T/C: 101 % of control
endpoint: median survival time, dose: 12.5 mg/kg/injection, schedule: Q01DX009 (ip), vehicle: suspension in saline
  T/C: 100 % of control
endpoint: median survival time, dose: 25.0 mg/kg/injection, schedule: Q01DX009 (ip), vehicle: saline with Tween-80
  T/C: 100 % of control
endpoint: median survival time, dose: 25.0 mg/kg/injection, schedule: Q01DX009 (ip), vehicle: suspension in saline
  T/C: 97 % of control
endpoint: median survival time, dose: 50.0 mg/kg/injection, schedule: Q01DX009 (ip), vehicle: saline with Tween-80
  T/C: 107 % of control

## O=C(O)CS(=O)(=O)O
[12]
  T/C: 100 % of control
[13]
  T/C: 100 % of control
[14]
  T/C: 100 % of control

## CCCCCOC(CN)C(Cl)(Cl)Cl (stereo not given)
[1]
  T/C: 101 % of control
[2]
  T/C: 96 % of control
[3]
  T/C: 95 % of control
[4]
  T/C: 98 % of control

## O=C1CSC(=S)N1/N=C/c1ccccc1
[13]
  T/C: 103 % of control

## CC([NH-])CC(C)[NH-].[I][Pt+2][I] (stereo not given)
[9]
  T/C: 113 % of control
[10]
  T/C: 121 % of control

## Cc1c(Cl)cccc1NC(=O)/C=C/c1ccccc1
endpoint: mean survival time, dose: 100.0 mg/kg/injection, schedule: Q04DX002 (ip), vehicle: saline with Tween-80
  T/C: 94 % of control
endpoint: mean survival time, dose: 200.0 mg/kg/injection, schedule: Q04DX002 (ip), vehicle: saline with Tween-80
  T/C: 102 % of control
endpoint: mean survival time, dose: 400.0 mg/kg/injection, schedule: Q04DX002 (ip), vehicle: saline with Tween-80
  T/C: 94 % of control

## COC(=O)c1cc2cc3c(c(O)c2c(=O)o1)OC1(Cc2c(O)c4c(c(O)c2O1)C(=O)C(OC)CC4=O)CC3O (stereo not given)
[1]
  T/C: 92 % of control
[2]
  T/C: 94 % of control
[15]
  T/C: 91 % of control
[4]
  T/C: 101 % of control
[16]
  T/C: 96 % of control

## CCOC(=O)/C(=C\c1ccccc1Cl)C(C)=O
[11]
  T/C: 103 % of control
endpoint: mean survival time, dose: 50.0 mg/kg/injection, schedule: Q04DX003 (ip), vehicle: saline with Tween-80
  T/C: 96 % of control
[4]
  T/C: 103 % of control
[6]
  T/C: 96 % of control
[7]
  T/C: 108 % of control
[8]
  T/C: 107 % of control
[5]
  T/C: 87 % of control

## C=CC(CN1CC1)OC(C)=O (stereo not given)
endpoint: mean survival time, dose: 2.5 mg/kg/injection, schedule: Q03DX003 (ip), vehicle: saline
  T/C: 107 % of control
endpoint: mean survival time, dose: 2.5 mg/kg/injection, schedule: Q04DX003 (ip), vehicle: saline
  T/C: 100 % of control
endpoint: mean survival time, dose: 3.75 mg/kg/injection, schedule: Q01DX009 (ip), vehicle: saline
  T/C: 159 % of control
endpoint: mean survival time, dose: 5.0 mg/kg/injection, schedule: Q01DX007 (ip), vehicle: saline
  T/C: 172 % of control
endpoint: mean survival time, dose: 5.0 mg/kg/injection, schedule: Q01DX009 (ip), vehicle: saline
  T/C: 160 % of control
endpoint: mean survival time, dose: 5.0 mg/kg/injection, schedule: Q03DX003 (ip), vehicle: saline
  T/C: 121 % of control
endpoint: mean survival time, dose: 5.0 mg/kg/injection, schedule: Q04DX003 (ip), vehicle: saline
  T/C: 111 % of control
endpoint: mean survival time, dose: 7.5 mg/kg/injection, schedule: Q01DX009 (ip), vehicle: saline
  T/C: 206 % of control and 249 % of control
endpoint: mean survival time, dose: 10.0 mg/kg/injection, schedule: Q04DX003 (ip), vehicle: saline
  T/C: 153 % of control
endpoint: mean survival time, dose: 30.0 mg/kg/injection, schedule: Q01DX009 (ip), vehicle: saline
  T/C: 91 % of control

## CCN(CCNc1ccc(C)c2sc3ccccc3c(=O)c12)CC(C)(C)O
endpoint: mean survival time, dose: 200.0 mg/kg/injection, schedule: Q01DX001 (ip), vehicle: saline
  T/C: 112 % of control
endpoint: mean survival time, dose: 400.0 mg/kg/injection, schedule: Q04DX003 (ip), vehicle: saline
  T/C: 174 % of control

## O=C(CC1(Cl)C(F)(F)C(F)(F)C1(F)F)c1ccccc1
[15]
  T/C: 95 % of control

## N/C(=N/N=C/c1ccco1)N[N+](=O)[O-]
endpoint: mean survival time, dose: 50.0 mg/kg/injection, schedule: Q01DX001 (ip), vehicle: Klucel (hydroxypropylcellulose) (HPC)
  T/C: 97 % of control
endpoint: mean survival time, dose: 100.0 mg/kg/injection, schedule: Q01DX001 (ip), vehicle: Klucel (hydroxypropylcellulose) (HPC)
  T/C: 94 % of control
endpoint: mean survival time, dose: 200.0 mg/kg/injection, schedule: Q01DX001 (ip), vehicle: Klucel (hydroxypropylcellulose) (HPC)
  T/C: 97 % of control

## C1CC2CCCN2C1
endpoint: mean survival time, dose: 12.5 mg/kg/injection, schedule: Q04DX003 (ip), vehicle: acetone
  T/C: 96 % of control
endpoint: mean survival time, dose: 25.0 mg/kg/injection, schedule: Q04DX003 (ip), vehicle: acetone
  T/C: 102 % of control
endpoint: mean survival time, dose: 50.0 mg/kg/injection, schedule: Q04DX003 (ip), vehicle: acetone
  T/C: 97 % of control

Source: PubChem BioAssay AID256 (DTP/NCI, 2004)
